Data set [1] concerns MT-4 cells. In words: Cytotoxicity on virus-noninfected MT-4 cells (MTT method). It is filed as cell-based. Conditions: 37° C., 5 days. How it is done: (§1) HIV-infected MT-4 cells (2.5×10^4 cells/well, multiplicity of infection (MOI): 0.001) immediately after infection were added together with the test substance with various changes of the concentration to a 96-well microtitre plate. After incubation at 37° C. for 5 days in a CO2 incubator, the number of survivor cells was measured by the MTT method [Pauwels et al.; J. Virol. Methods, 20, 309-321 (1988)]. The antiviral activity is expressed as a concentration at which cell death due to HIV infection is 50% inhibited (EC50 : 50% effective concentration). On the other hand, in order to know the cytotoxicity of the test substance on the MT-4 cells, virus-noninfected cells are incubated, likewise as above, together with the test compound with various changes of the concentration. The cytotoxicity is expressed as 50% cytotoxic concentration […] due to the test substance. Further, the rough ratio of CC50 to EC50 (CC50 /EC50) is expressed as an effective ratio (SI=selectivity index).
On the technique in general: Formazan colour is commonly taken as a measure of viable cells.

Data set [2] relates to HIV. Nature of the data set: Antiviral activity against HIV in HIV-infected MT-4 cells (MTT method). In kind it is cell-based, human immunodeficiency virus. Conditions: for EC50 (concentration at which cell death due to HIV infection is 50% inhibited): HIV-infected MT-4 cells, MOI 0.001, 37° C., 5 days, MTT method; for SI (CC50 /EC50): rough ratio of CC50 to EC50, MT-4 cells; for selectivity in killing HIV infected cells (in words): MT-4 cells, Table III; for selectivity index higher than for any of the known high endotoxin affinity compounds: compared with Tachyplesins and Polyphemusins of Table III. How it is done: The antiviral activity-against HIV of the polypeptide (1) synthesized in Example 1 as well as polypeptides (2), (3), (4), (7), (12), (13), (14), (20), (21) and (26) was tested and evaluated according to the following method.
as §1

In brackets after ≈: the same amount, converted by molar mass. Positions of bridges follow the written chain, without caps; N, C: chain ends. Residues, ends and D or L forms follow the SMILES beside them.

As to `Cc1cn([C@H]2C[C@H](N=[N+]=[N-])[C@@H](CO)O2)c(=O)[nH]c1=O` [AZT, reference compound], in data set [1], the “CC50 (50% cytotoxic concentration)” value was 6.8 µg/mL (≈ 25.4 µM). Further, in data set [2], the “EC50 (concentration at which cell death due to HIV infection is 50% inhibited)” value amounted to 4.8 µg/mL (≈ 18 µM).

For `CC(C)[C@@H]1NC(=O)[C@H](CCCNC(=N)N)NC(=O)[C@H](Cc2ccccc2)NC(=O)[C@@H](NC(=O)[C@H](Cc2c[nH]c3ccccc23)NC(=O)[C@H](CCCNC(=N)N)NC(=O)[C@@H](N)CCCNC(=N)N)CSSC[C@@H](C(=O)N[C@@H](CCCNC(=N)N)C(N)=O)NC(=O)[C@H](CCCCN)NC(=O)[C@H](CCCNC(=N)N)NC(=O)[C@H](Cc2ccc(O)cc2)NC(=O)[C@@H]2CSSC[C@H](NC1=O)C(=O)N[C@@H](Cc1ccc(O)cc1)C(=O)N[C@@H](CCCCN)C(=O)NCC(=O)N[C@@H](Cc1ccccc1)C(=O)N2` [Polyphemusin II, ArgArgTrpCysPheArgValCysTyrLysGlyPheCysTyrArgLysCysArg NH2, reference compound] (H-RRWCFRVCYKGFCYRKCR-NH2; disulfide 4-17, 8-13), the “CC50 (50% cytotoxic concentration)” value in data set [1] worked out at 33 µg/mL (≈ 13.6 µM). For the same compound, in data set [2], the “EC50 (concentration at which cell death due to HIV infection is 50% inhibited)” value is 1.9 µg/mL (≈ 0.783 µM) and the “SI (CC50 /EC50)” value was found to be 17.

For the compound `CC[C@H](C)[C@@H]1NC(=O)CNC(=O)[C@H](CCCNC(=N)N)NC(=O)[C@H](Cc2ccc(O)cc2)NC(=O)[C@@H]2CSSC[C@H](NC1=O)C(=O)N[C@@H](Cc1ccc(O)cc1)C(=O)N[C@@H](CCCNC(=N)N)C(=O)N[C@@H](CCCCN)C(=O)N[C@H](C(=O)N[C@@H](CCCNC(=N)N)C(N)=O)CSSC[C@H](NC(=O)[C@H](Cc1c[nH]c3ccccc13)NC(=O)[C@@H](N)CCCNC(=N)N)C(=O)N[C@@H](Cc1ccccc1)C(=O)N[C@@H](CCCNC(=N)N)C(=O)N[C@@H](C(C)C)C(=O)N2` [Tachyplesin II, ArgTrpCysPheArgValCysTyrArgGlyIleCysTyrArgLysCysArg NH2, reference compound] (H-RWCFRVCYRGICYRKCR-NH2; disulfide 3-16, 7-12), the “CC50 (50% cytotoxic concentration)” value in data set [1] stood at 36 µg/mL (≈ 15.9 µM). Besides, the “SI (CC50 /EC50)” value in data set [2] is reported as 6.

With `N=C(N)NCCC[C@H](NC(=O)[C@@H]1CSSC[C@H](NC(=O)[C@H](Cc2c[nH]c3ccccc23)NC(=O)[C@H](CCCNC(=N)N)NC(=O)[C@@H](N)CCCNC(=N)N)C(=O)N[C@@H](Cc2ccc(O)cc2)C(=O)N[C@@H](CCCNC(=N)N)C(=O)N[C@@H](CCCCN)C(=O)N[C@H]2CSSC[C@H](NC(=O)[C@H](Cc3ccc(O)cc3)NC(=O)CNC(=O)[C@H](CCCCN)NC(=O)[C@H](Cc3ccc(O)cc3)NC2=O)C(=O)N[C@@H](Cc2ccc(O)cc2)C(=O)N[C@@H](CCCNC(=N)N)C(=O)N[C@@H](CCCCN)C(=O)N1)C(N)=O` [polypeptide (1)] (H-RRWCYRKCYKGYCYRKCR-NH2; disulfide 4-17, 8-13), the “CC50 (50% cytotoxic concentration)” value in data set [1] is 54 µg/mL (≈ 21.7 µM). In data set [2], the “SI (CC50 /EC50)” value is listed as 10800.

Regarding `N=C(N)NCCC[C@H](NC(=O)[C@H](CCCNC(=N)N)NC(=O)[C@@H]1CSSC[C@H](NC(=O)[C@H](Cc2c[nH]c3ccccc23)NC(=O)[C@H](CCCNC(=N)N)NC(=O)[C@@H](N)CCCNC(=N)N)C(=O)N[C@@H](Cc2ccc(O)cc2)C(=O)N[C@@H](CCCNC(=N)N)C(=O)N[C@@H](CCCCN)C(=O)N[C@H]2CSSC[C@H](NC(=O)[C@H](Cc3ccc(O)cc3)NC(=O)CNC(=O)[C@H](CCCCN)NC(=O)[C@H](Cc3ccc(O)cc3)NC2=O)C(=O)N[C@@H](Cc2ccc(O)cc2)C(=O)N[C@@H](CCCNC(=N)N)C(=O)N[C@@H](CCCCN)C(=O)N1)C(N)=O` [polypeptide (2), ArgArgTrpCysTyrArgLysCysTyrLysGlyTyrCysTyrArgLysCysArgArgNH2] (H-RRWCYRKCYKGYCYRKCRR-NH2; disulfide 4-17, 8-13; N-terminus assumed), in data set [1], the “CC50 (50% cytotoxic concentration)” value was 200 µg/mL (≈ 75.7 µM). In addition, in data set [2], the “EC50 (concentration at which cell death due to HIV infection is 50% inhibited)” value was 1.26 µg/mL (≈ 0.477 µM).

Take `N=C(N)NCCC[C@H](NC(=O)[C@@H]1CSSC[C@H](NC(=O)[C@H](Cc2c[nH]c3ccccc23)NC(=O)[C@@H](N)CCCNC(=N)N)C(=O)N[C@@H](Cc2ccc(O)cc2)C(=O)N[C@@H](CCCNC(=N)N)C(=O)N[C@@H](CCCCN)C(=O)N[C@H]2CSSC[C@H](NC(=O)[C@H](Cc3ccccc3)NC(=O)CNC(=O)[C@H](CCCCN)NC(=O)[C@H](Cc3ccc(O)cc3)NC2=O)C(=O)N[C@@H](Cc2ccc(O)cc2)C(=O)N[C@@H](CCCNC(=N)N)C(=O)N[C@@H](CCCCN)C(=O)N1)C(N)=O` [polypeptide (3), ArgTrpCysTyrArgLysCysTyrLysGlyPheCysTyrArgLysCysArgNH2] (H-RWCYRKCYKGFCYRKCR-NH2; disulfide 3-16, 7-12; N-terminus assumed): the “CC50 (50% cytotoxic concentration)” value in data set [1] was determined as 50 µg/mL (≈ 21.6 µM). Further, in data set [2], the “EC50 (concentration at which cell death due to HIV infection is 50% inhibited)” value worked out at 0.07 µg/mL (≈ 0.0302 µM), the “selectivity in killing HIV infected cells (in words)” value (shortened to “selectivity … (in words)”) is on record as “particularly selective” and the “selectivity index higher than for any of the known high endotoxin affinity compounds” value (“selectivity index higher than for any” for short) is recorded as “at least 7 fold”.

Take `N=C(N)NCCC[C@H](NC(=O)[C@H](CCCNC(=N)N)NC(=O)[C@@H]1CSSC[C@H](NC(=O)[C@H](Cc2c[nH]c3ccccc23)NC(=O)[C@@H](N)CCCNC(=N)N)C(=O)N[C@@H](Cc2ccc(O)cc2)C(=O)N[C@@H](CCCNC(=N)N)C(=O)N[C@@H](CCCCN)C(=O)N[C@H]2CSSC[C@H](NC(=O)[C@H](Cc3ccccc3)NC(=O)CNC(=O)[C@H](CCCCN)NC(=O)[C@H](Cc3ccc(O)cc3)NC2=O)C(=O)N[C@@H](Cc2ccc(O)cc2)C(=O)N[C@@H](CCCNC(=N)N)C(=O)N[C@@H](CCCCN)C(=O)N1)C(N)=O` [polypeptide (4), ArgTrpCysTyrArgLysCysTyrLysGlyPheCysTyrArgLysCysArgArgNH2] (H-RWCYRKCYKGFCYRKCRR-NH2; disulfide 3-16, 7-12; N-terminus assumed): in data set [1], the “CC50 (50% cytotoxic concentration)” value worked out at 338 µg/mL (≈ 137 µM). Besides, the “EC50 (concentration at which cell death due to HIV infection is 50% inhibited)” value in data set [2] is 2.75 µg/mL (≈ 1.11 µM).

Turning to `N=C(N)NCCC[C@H](NC(=O)[C@@H]1CSSC[C@H](NC(=O)[C@H](Cc2c[nH]c3ccccc23)NC(=O)[C@H](CCCNC(=N)N)NC(=O)[C@@H](N)CCCNC(=N)N)C(=O)N[C@@H](Cc2ccc(O)cc2)C(=O)N[C@@H](CCCCN)C(=O)N[C@@H](CCCNC(=N)N)C(=O)N[C@H]2CSSC[C@H](NC(=O)[C@H](Cc3ccc(O)cc3)NC(=O)CNC(=O)[C@H](CCCCN)NC(=O)[C@H](Cc3ccc(O)cc3)NC2=O)C(=O)N[C@@H](Cc2ccc(O)cc2)C(=O)N[C@@H](CCCCN)C(=O)N[C@@H](CCCNC(=N)N)C(=O)N1)C(N)=O` [polypeptide (12), ArgArgTrpCysTyrLysArgCysTyrLysGlyTyrCysTyrLysArgCysArgNH2] (H-RRWCYKRCYKGYCYKRCR-NH2; disulfide 4-17, 8-13; N-terminus assumed), the “CC50 (50% cytotoxic concentration)” value in data set [1] came out at 245 µg/mL (≈ 98.5 µM). Besides, in data set [2], the “EC50 (concentration at which cell death due to HIV infection is 50% inhibited)” value is 0.49 µg/mL (≈ 0.197 µM), the “selectivity … (in words)” value is “particularly selective” and the “selectivity index higher than for any” value is reported as “at least 7 fold”.

With `N=C(N)NCCC[C@H](NC(=O)[C@@H]1CSSC[C@H](NC(=O)[C@H](Cc2c[nH]c3ccccc23)NC(=O)[C@H](CCCNC(=N)N)NC(=O)[C@@H](N)CCCNC(=N)N)C(=O)N[C@@H](Cc2ccc(O)cc2)C(=O)N[C@@H](CCCNC(=N)N)C(=O)N[C@@H](CCCCN)C(=O)N[C@H]2CSSC[C@H](NC(=O)[C@H](Cc3ccccc3)NC(=O)CNC(=O)[C@H](CCCCN)NC(=O)[C@H](Cc3ccc(O)cc3)NC2=O)C(=O)N[C@@H](Cc2ccc(O)cc2)C(=O)N[C@@H](CCCNC(=N)N)C(=O)N[C@@H](CCCCN)C(=O)N1)C(N)=O` [polypeptide (13), ArgArgTrpCysTyrArgLysCysTyrLysGlyPheCysTyrArgLysCysArgNH2] (H-RRWCYRKCYKGFCYRKCR-NH2; disulfide 4-17, 8-13; N-terminus assumed), the “CC50 (50% cytotoxic concentration)” value in data set [1] worked out at 52 µg/mL (≈ 21 µM). In addition, in data set [2], the “EC50 (concentration at which cell death due to HIV infection is 50% inhibited)” value was 0.009 µg/mL (≈ 0.00364 µM), the “selectivity … (in words)” value is given as “particularly selective” and the “selectivity index higher than for any” value is reported as “at least 7 fold”.

For `N=C(N)NCCC[C@H](NC(=O)[C@@H]1CSSC[C@H](NC(=O)[C@H](Cc2c[nH]c3ccccc23)NC(=O)[C@H](CCCNC(=N)N)NC(=O)[C@@H](N)CCCNC(=N)N)C(=O)N[C@@H](Cc2ccc(O)cc2)C(=O)N[C@@H](CCCNC(=N)N)C(=O)N[C@@H](CCCCN)C(=O)N[C@H]2CSSC[C@H](NC(=O)[C@H](Cc3ccc(O)cc3)NC(=O)CNC(=O)[C@H](CCCNC(=N)N)NC(=O)[C@H](Cc3ccc(O)cc3)NC2=O)C(=O)N[C@@H](Cc2ccc(O)cc2)C(=O)N[C@@H](CCCNC(=N)N)C(=O)N[C@@H](CCCCN)C(=O)N1)C(N)=O` [polypeptide (14), ArgArgTrpCysTyrArgLysCysTyrArgGlyTyrCysTyrArgLysCysArgNH2] (H-RRWCYRKCYRGYCYRKCR-NH2; disulfide 4-17, 8-13; N-terminus assumed), the “CC50 (50% cytotoxic concentration)” value in data set [1] amounted to 52 µg/mL (≈ 20.7 µM). Moreover, in data set [2], the “EC50 (concentration at which cell death due to HIV infection is 50% inhibited)” value was 0.018 µg/mL (≈ 0.00716 µM), the “selectivity … (in words)” value is “particularly selective” and the “selectivity index higher than for any” value is “at least 7 fold”.
